Reference: patent US20110263539A1, “SHIP 1 MODULATOR COMPOUNDS” (THE UNIVERSITY OF BRITISH COLUMBIA, priority 2006, published 2011)

Tests used:
SHIP enzyme = assay: In vitro SHIP enzyme assay (Assay 1); type: biochemical; for Assay Number 1: SHIP enzyme assay: key: a ‘+’ indicates a positive result for desired activity; a ‘−’ indicates a negative result for desired activity
Method: Assay 1) In vitro testing in a SHIP enzyme assay. Test compounds were dissolved in a suitable solvent (e.g. EtOH, DMSO and others) and diluted into aqueous buffer (20 mM Tris HCl, pH 7.5 and 10 mM MgCl2). SHIP enzyme assays were performed in 96-well microtitre plates with 10 ng of enzyme/well in a total volume of 25 μL of 20 mM Tris HCl, pH 7.5 and 10 mM MgCl2. SHIP enzyme was incubated with test extracts (provided in solvent) or vehicle for 15 min at 23° C. before the addition of 100 μM inositol-1,3,4,5-tetrakisphosphate (Echelon Biosciences Inc, Salt Lake City, Utah). After 20 min at 37° C. and the amount of inorganic phosphate released assessed by the addition of Malachite Green reagent and absorbance measurement at 650 nm.
For in vitro testing in the SHIP enzyme assay, AQX-016A and Compound 100 were dissolved in EtOH and diluted into aqueous buffer (20 mM Tris HCl, pH 7.5 and 10 mM MgCl2). The actual concentration of drug in solution was determined by optical density measurement at 280 nm (λmax for both compounds) after high speed centrifugation at 14 000×g for 30 min to remove precipitated drug. For testing on cells, compounds were formulated in the carrier cyclodextrin (Cyclodex Technologies, High Springs, Fla.) at 6 mM (2 mg/mL). For oral administration to animals, compounds were dissolved in 100% cremophore EL (Sigma-Aldrich Canada, Oakville, Ontario) at 150 mM (50 mg/mL) prior to dilution to 6 mM in phosphate buffer saline. However, while these compounds caged in cyclodextrin or formulated in cremophore EL micelles were very soluble in aqueous solution, they could not be used in the SHIP enzyme assays because of interference from both cyclodextrin and cremophore EL.
N-terminal His6 tagged SHIP enzyme was expressed in mammalian 293T cells by transient transfection with pME18S-His-SHIP plasmid and purified to >95% homogeneity by Ni-chelating bead chromatography (Qiagen, Mississauga, Ontario). Recombinant SHIP C2 domain (amino acid residues 725 to 863) was expressed in E. coli transformed with a pET28C expression vector constructed as described below. Recombinant protein purified from the cell lysates by Nichelating bead chromatography was >95% pure.
In vitro SHIP enzyme assay. SHIP enzyme assays were performed in 96-well microtitre plates with 10 ng of enzyme/well in a total volume of 25 μL of 20 mM Tris HCl, pH 7.5 and 10 Mm MgCl2. SHIP enzyme was incubated with test extracts (provided in DMSO) or vehicle for 15 min at 23° C. before the addition of 100 μM inositol-1,3,4,5-tetrakisphosphate (Echelon Biosciences Inc, Salt Lake City, Utah). After 20 min at 37° C. and the amount of inorganic phosphate released assessed by the addition of Malachite Green reagent and absorbance measurement at 650 nm. SHIP2 enzyme was purchased from Echelon Biosciences (Salt Lake City, Utah) and an equivalent amount of inositol phosphatase activity was used in the in vitro enzyme assay. Enzyme data are expressed as the mean of triplicates +/−SEM. Experiments were performed at least 3 times. (FIGS. 7A and 7B).

plasma TNFα = assay: Mouse endotoxemia model (Assay 6); type: in vivo, C57B16 mice; details: oral administration 30 min prior to LPS, 2 hrs
Method: (§1) Assay 6) Mouse endotoxemia model. 6-8 week old C57B16 mice (VCHRI Mammalian Model of Human Disease Core Facility, Vancouver, BC) were orally administered the test compound 30 min prior to an IP injection of 2 mg/kg of LPS (E. Coli serotype 0111:B4, Sigma, Oakville, Ont). Blood was drawn 2 hrs later for determination of plasma TNFα by ELISA.
as §1, with “Mouse” for “Assay 6) Mouse”, “indicated dose of AQX-016A, Compound 100 or dexamethasone or carrier” for “test compound”, “ELISA. Results are representative of 3 independent experiments. (FIGS. 7D and 9)” for “ELISA.”
AQX-016A's ability to provide protection by inhibiting inflammatory reactions in vivo was assessed in mouse models. The mouse model of endotoxic shock involves intraperitoneal (IP) injection of bacterial LPS and measurement of serum TNFα levels 2 hrs later. We orally administered AQX-016A or the steroidal drug dexamethasone to mice 30 min prior to the LPS challenge.

wild-type SHIP = assay: Scintillation proximity assay, wild-type and ΔC2 SHIP; type: binding; details: [3H]-Compound 100, SPA beads
Method: Compound 100 was radiolabelled with tritium by GE Healthcare (Piscataway, N.J.) to a specific activity of 42 Ci/mmole. Copper chelate (His-Tag) YSi SPA Scintillation Beads (GE Healthcare, Piscataway, N.J.) were diluted in 0.25% BSA/TBS to 1.5 mg/mL and recombinant, His6-tagged protein added at the indicated concentrations: wild-type (1 μM), ΔC2 SHIP enzyme (1 pM) or C2 domain (10 nM). Protein was allowed to bind 1 h at 23° C., and 250 μg of beads were aliquoted per well of a 96-well plate. 5 μCi of [^3H]-Compound 100 was added per well, the plate gently agitated for 30 min and the amount of bead associated radioactivity quantified by counting in a Wallac BetaPlate plate scintillation counter.
Isolated recombinant, His6-tagged C2 domain was expressed and its PI-3,4-P2 binding ability was determined using protein lipid overlay assays. Purified C2 domain was incubated with membrane strips spotted with PI-3,4-P2 and bound protein detected using an anti-His6 antibody. As shown in FIG. 11C the C2 domain bound PI-3,4-P2 and this binding was inhibited by Compound 100, consistent with both Compound 100 and PI-3,4-P2 interacting with the C2 domain at a common binding site.

With `Cc1cc(O)cc2c1[C@]1(C)CCC3C(C)(C)CCC[C@]3(C)[C@H]1C2` (stereo partly shown) [Compound 100] as the compound, how does the “Assay Number 1: SHIP enzyme assay” value (SHIP enzyme; 100 μM inositol-1,3,4,5-tetrakisphosphate, Malachite Green) read?
Its value is “+”.

And the SHIP enzyme activity (SHIP enzyme; wild-type SHIP)?
Its SHIP enzyme activity is “enhanced SHIP enzyme activity in vitro”.

What about the “LPS-induced plasma/serum TNFα levels” value (plasma TNFα) of the same compound?
Its value is “efficiently inhibited”.

What about the “binding to wild-type SHIP vs SHIP lacking C2 domain” value (wild-type SHIP) of the same compound?
The value was “bound to wild-type SHIP but not to SHIP lacking its C2 domain”.
